pIC50: −log10 of the molar value.
biological target: T1, IRAK4 (Homo sapiens, UniProt Q9NWZ3); test: Reaction Biology NanoBRET target engagement assay in HEK-293 cells, IRAK4; type: cell-based; settings: live HEK-293 cells transfected with Kinase-NanoLuc fusion, 1 hour
T1 sequence (Q9NWZ3 1-460): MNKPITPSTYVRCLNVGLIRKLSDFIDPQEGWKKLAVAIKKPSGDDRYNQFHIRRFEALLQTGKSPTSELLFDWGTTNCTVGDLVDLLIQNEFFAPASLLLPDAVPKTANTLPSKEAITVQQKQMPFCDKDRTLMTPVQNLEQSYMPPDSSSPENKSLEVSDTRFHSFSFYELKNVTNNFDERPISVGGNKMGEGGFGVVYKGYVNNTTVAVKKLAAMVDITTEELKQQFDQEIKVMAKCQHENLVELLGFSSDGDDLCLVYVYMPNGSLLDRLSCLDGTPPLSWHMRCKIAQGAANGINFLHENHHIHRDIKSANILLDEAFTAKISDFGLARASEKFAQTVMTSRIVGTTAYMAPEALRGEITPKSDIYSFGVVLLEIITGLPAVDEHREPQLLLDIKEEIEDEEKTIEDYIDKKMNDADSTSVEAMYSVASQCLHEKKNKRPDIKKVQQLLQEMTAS
Source text: The NanoBRET assay measures kinase engagement in real time in the context of the intact cell. Unlike the previously described biochemical kinase assay methodology in Example 33, the NanoBRET assay measures the binding and activity characteristics under equilibrium conditions using full-length kinases in the presence of cellular concentrations of ATP in live, uncompromised cells. As such, the assay provides a more relevant assessment of kinase potency and selectivity that would be expected to be observed in the native cellular environment, where potency is often considerably lower than that observed in the isolated biochemical assays (Vasta, J. D. et al., (2018) Cell Chem. Biol. 25, 206-214). The assay uses a Kinase-NanoLuc® fusion vector expressing a kinase protein to which a luciferase tag has been added, a cell-permeant fluorescent NanoBRET™ tracer, a NanoLuc® substrate, and an extracellular NanoLuc® inhibitor. Upon expression of the luciferase-tagged kinase, cells will produce a strong BRET signal only in the presence of the NanoBRET™ tracer. The extracellular NanoLuc® inhibitor ensures that the BRET signal observed emanates only from live cells. Because the BRET signal has tight distance constraints, addition of the test compound will decrease the BRET signal if the compound competes with the NanoBRET™ tracer for binding to the kinase domain. Under the appropriate tracer conditions established by the manufacturer, quantitative intracellular affinity and relative potency can then be determined using Mass Action model equations.
HEK-293 cells were purchased from ATCC. FuGENEHD Transfection Reagent, Kinase-NanoLucfusion plasmids, Transfection Carrier DNA, NanoBRETTracers and dilution buffer, NanoBRETNano-Glo Substrate, Extracellular NanoLucInhibitor were obtained from Promega.
Assays were conducted following Promega assay protocol with some modifications. HEK-293 Cells were transiently transfected with Kinase-NanoLucFusion Vector DNA by FuGENEHD Transfection Reagent. Testing compounds were delivered into 384 well assay plate by Echo 550 (LabcyteInc, Sunnyvale, CA). Transfected cells were harvested and mixed with NanoBRETTracer Reagent and dispensed into 384 well plates and incubated at 37° C. in 5% C02 cell culture incubator for 1 hour. The NanoBRETNano-Glo Substrate plus Extracellular NanoLucInhibitor Solution were added into the wells of the assay plate and incubated for 2-3 minutes at room temperature. The donor emission wavelength (460 nm) and acceptor emission wavelength (600 nm) were measured in the EnVisionplate reader. The BRET Ratios were calculated. BRET Ratio=[(Acceptor sample÷Donor sample)−(Acceptor no-tracer control÷Donor no-tracer control)]. The IC50 values of compounds were calculated with Prism GraphPad program.
• 1). Cultivate HEK-293 cells (70-80% confluence) appropriately prior to assay. Trypsinize and collect HEK-293 cells. • 2). Prepare lipid: DNA complexes as follows: • a. Prepare a 10 μg/ml solution of DNA in Opti-MEM without serum that consists of the following ratios of carrier DNA and DNA encoding NanoLuc® fusion. 9.0 μg/mL of Transfection Carrier DNA, 1.0 μg/mL of NanoLuc fusion vector DNA and 1 mL of Opti-MEM without phenol red. Mix thoroughly. • b. Add 30 μl of FuGENE HD Transfection Reagent into each milliliter of DNA mixture to form lipid: DNA complex. • c. Mix by inversion 10 times. • d. Incubate at ambient temperature for 20 minutes to allow complexes to form. • 3). In a sterile, conical tube, mix 1 part of lipid:DNA complex with 20 parts of HEK-293 cells in suspension. Mix gently by inversion 5 times. • 4). Dispense cells+lipid:DNA complex into a sterile tissue culture dish and incubate for 22-24 hours.
Each test compound is delivered from the compound source plate to the wells of 384-well white NBS plate by Echo 550.
3. Preparation of Cells with NanoBRET™ Tracer Reagent • 1). […]

Compared with `CC(O)(c1ccc2ncc(-c3ccnc(N[C@H]4CNCC[C@@H]4F)n3)n2c1)C(F)(F)F` (single isomer, unassigned) [Compound 25a], `CC(O)(c1ccc2ncc(-c3ccnc(N[C@@H]4CCCNC4)n3)n2c1)C(F)(F)F` (single isomer, unassigned) [Compound 22a] is higher in pIC50: 8.70 for the first, over 9.30 for the second. The second is the more potent here.

`CC(O)(c1ccc2ncc(-c3ccnc(N[C@@H]4CCCNC4)n3)n2c1)C(F)(F)F` (single isomer, unassigned) [Compound 23a] and `CC(O)(c1ccc2ncc(-c3cncc(N[C@@H]4CCCNC4)n3)n2c1)C(F)(F)F` (single isomer, unassigned) [Compound 28a] cannot be ordered by pIC50: over 9.30 for the first, over 9.30 for the second.

`COc1cc2ncc(-c3nc(N[C@H]4CNCC[C@@H]4F)ncc3F)n2nc1C1COC1` [Compound 92a, 5-fluoro-N-((3S,4S)-4-fluoropiperidin-3-yl)-4-(7-methoxy-6-(oxetan-3-yl)imidazo[1,2-b]pyridazin-3-yl)pyrimidin-2-amine] and `COc1cc2ncc(-c3nc(N[C@H]4CNCC[C@@H]4F)ncc3F)n2nc1C1CC1` [Compound 1a, 4-(6-cyclopropyl-7-methoxyimidazo[1,2-b]pyridazin-3-yl)-5-fluoro-N-((3S,4S)-4-fluoropiperidin-3-yl)pyrimidin-2-amine] cannot be ordered by pIC50: over 9.30 for the first, over 9.30 for the second.

Going from `CC(C)(O)c1cn2c(-c3nc(N[C@H]4CNCC[C@@H]4F)ncc3F)cnc2cn1` [Compound 100a, 2-(3-(5-fluoro-2-(((3S,4S)-4-fluoropiperidin-3-yl)amino)pyrimidin-4-yl)imidazo[1,2-a]pyrazin-6-yl)propan-2-ol] to `CC(C)(O)c1ccc2ncc(-c3nc(N[C@H]4CNCC[C@@H]4F)ncc3F)n2c1` [Compound 46a, 2-(3-(5-fluoro-2-(((3S,4S)-4-fluoropiperidin-3-yl)amino)pyrimidin-4-yl)imidazo[1,2-a]pyridin-6-yl)propan-2-ol], the pIC50 rises from 8.10 to 8.40 (0.30 log units).

Compared with `COc1cc2ncc(-c3nc(N[C@H]4CNCC[C@@H]4F)ncc3F)n2nc1C1CC(F)(F)C1` [Compound 49a, 4-(6-(3,3-difluorocyclobutyl)-7-methoxyimidazo[1,2-b]pyridazin-3-yl)-5-fluoro-N-((3S,4S)-4-fluoropiperidin-3-yl)pyrimidin-2-amine], `COc1cc2ncc(-c3nc(N[C@H]4CNCC[C@@H]4F)ncc3F)n2nc1C(C)(C)O` [Compound 45a, 2-(3-(5-fluoro-2-(((3S,4S)-4-fluoropiperidin-3-yl)amino)pyrimidin-4-yl)-7-methoxyimidazo[1,2-b]pyridazin-6-yl)propan-2-ol] is lower in pIC50: over 9.30 for the first, 8.52 for the second. The first is the more potent here.

Going from `COc1cc2ncc(-c3nc(N[C@H]4CNC[C@@H]4F)ncc3F)n2nc1N1CCCS1(=O)=O` [Compound 111a, 2-(3-(5-fluoro-2-(((3S,4S)-4-fluoropyrrolidin-3-yl)amino)pyrimidin-4-yl)-7-methoxyimidazo[1,2-b]pyridazin-6-yl)isothiazolidine 1,1-dioxide] to `COc1cc2ncc(-c3nc(N[C@H]4CNCC[C@@H]4F)ncc3F)n2nc1N1CCCS1(=O)=O` [Compound 112a, 2-(3-(5-fluoro-2-(((3S,4S)-4-fluoropiperidin-3-yl)amino)pyrimidin-4-yl)-7-methoxyimidazo[1,2-b]pyridazin-6-yl)isothiazolidine 1,1-dioxide], the pIC50 rises from 7.47 to over 9.30.

First: CC(O)(c1ccc2ncc(-c3cncc(N[C@H]4CNCC[C@@H]4F)n3)n2c1)C(F)(F)F (single isomer, unassigned) [Compound 31a]
Second: CC(C)(O)c1ccc2ncc(-c3nc(N[C@@H]4CCCNC4)ncc3F)n2c1 [Compound 48a, (R)-2-(3-(5-fluoro-2-(piperidin-3-ylamino)pyrimidin-4-yl)imidazo[1,2-a]pyridin-6-yl)propan-2-ol]
The pIC50 of the first is higher: over 9.30 for the first, 8.30 for the second. The first is the more potent here.

Going from `FC(F)COc1cc2ncc(-c3ccnc(N[C@H]4CNCC[C@@H]4F)n3)n2nc1C1CC1` [Compound 4a, 4-(6-cyclopropyl-7-(2,2-difluoroethoxy)imidazo[1,2-b]pyridazin-3-yl)-N-((3 S,4S)-4-fluoropiperidin-3-yl)pyrimidin-2-amine] to `F[C@H]1CCNC[C@@H]1Nc1nccc(-c2cnc3cc(OC4CC4)c(C4CC4)nn23)n1` [Compound 12a, 4-(7-cyclopropoxy-6-cyclopropylimidazo[1,2-b]pyridazin-3-yl)-N-((3S,4S)-4-fluoropiperidin-3-yl)pyrimidin-2-amine], the pIC50 rises from 9.10 to over 9.30.

With `COc1cc2ncc(-c3ccnc(N[C@H]4CNCC[C@@H]4F)n3)n2nc1C1CCC1` [Compound 79a, 4-(6-cyclobutyl-7-methoxyimidazo[1,2-b]pyridazin-3-yl)-N-((3S,4S)-4-fluoropiperidin-3-yl)pyrimidin-2-amine] the pIC50 was over 9.30.
